Read-outs that look alike come from different tables or passages of the source.
Assays:
human CB2 receptors = human CB2 receptors (Homo sapiens (Human), UniProt P34972); assay: cAMP assay, CHO cells expressing human CB2 receptors; assay type: cell-based
human CB1 receptors = human CB1 receptors (Homo sapiens (Human), UniProt P21554); assay: cAMP assay, CHO cells expressing human CB1 receptors; assay type: cell-based
[1] = functional cAMP assay, CHO cells expressing human CB2, read-out: human CB2 EC50
[2] = functional cAMP assay, CHO cells expressing human CB1, read-out: human CB1 EC50

human CB1 receptors, sequence (P21554 whole entry): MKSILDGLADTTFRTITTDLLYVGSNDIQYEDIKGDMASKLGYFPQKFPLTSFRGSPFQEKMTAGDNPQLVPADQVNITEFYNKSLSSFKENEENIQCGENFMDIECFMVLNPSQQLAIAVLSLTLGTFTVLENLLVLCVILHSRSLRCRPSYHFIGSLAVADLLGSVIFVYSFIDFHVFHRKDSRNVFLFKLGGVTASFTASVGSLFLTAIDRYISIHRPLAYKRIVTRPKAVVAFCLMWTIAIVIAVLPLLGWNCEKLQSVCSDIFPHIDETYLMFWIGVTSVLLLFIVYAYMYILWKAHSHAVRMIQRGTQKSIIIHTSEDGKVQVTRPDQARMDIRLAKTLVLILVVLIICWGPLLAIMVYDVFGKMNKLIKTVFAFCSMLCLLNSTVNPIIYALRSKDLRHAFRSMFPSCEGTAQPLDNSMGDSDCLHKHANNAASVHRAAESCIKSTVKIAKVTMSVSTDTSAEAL
human CB2 receptors, sequence (P34972 whole entry): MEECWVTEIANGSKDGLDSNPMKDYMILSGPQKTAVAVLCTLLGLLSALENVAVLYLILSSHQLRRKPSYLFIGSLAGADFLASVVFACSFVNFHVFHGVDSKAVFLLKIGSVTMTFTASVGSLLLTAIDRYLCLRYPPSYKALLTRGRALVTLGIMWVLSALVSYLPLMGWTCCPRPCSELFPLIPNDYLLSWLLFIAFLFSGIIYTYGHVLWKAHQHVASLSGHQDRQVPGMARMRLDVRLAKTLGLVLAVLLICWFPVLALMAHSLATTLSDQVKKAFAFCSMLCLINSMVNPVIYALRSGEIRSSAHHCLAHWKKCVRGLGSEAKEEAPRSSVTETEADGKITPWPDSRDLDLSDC

Work on NC(=O)CC1(NC(=O)c2ccc(C(F)(F)F)c(OCC3CCOCC3)n2)CS(=O)(=O)C1 [Example 78, N-[3-(2-Amino-2-oxoethyl)-1,1-dioxothietan-3-yl]-6-(oxan-4-ylmethoxy)-5-(trifluoromethyl)pyridine-2-carboxamide] yielded an EC50 (human CB2 receptors; [1]) of 41 nM and an EC50 (human CB1 receptors; [2]) greater than 10000 nM.

NC(=O)CC1(NC(=O)c2cccc(-c3ccc(F)c(Cl)c3)n2)CS(=O)(=O)C1 [Example 79, N-[3-(2-Amino-2-oxoethyl)-1,1-dioxothietan-3-yl]-6-(3-chloro-4-fluorophenyl)pyridine-2-carboxamide] showed an EC50 (human CB2 receptors; [1]) of 74.7 nM and an EC50 (human CB1 receptors; [2]) greater than 10000 nM.

NC(=O)CC1(NC(=O)c2ccc(C3CC3)c(OCC3CCCO3)n2)CS(=O)(=O)C1 (stereo not shown) [Example 80, N-[3-(2-Amino-2-oxoethyl)-1,1-dioxothietan-3-yl]-5-cyclopropyl-6-(oxolan-2-ylmethoxy)pyridine-2-carboxamide] was tested, and the EC50 (human CB2 receptors; [1]) was 2.4 nM and the EC50 (human CB1 receptors; [2]) was greater than 10000 nM.

In the case of NC(=O)CC1(NC(=O)c2ccc(C3CC3)c(Cc3ccc(F)cc3)n2)CNC1 [Example 81, N-[3-(2-Amino-2-oxoethyl)azetidin-3-yl]-5-cyclopropyl-6-[(4-fluorophenyl)methyl]pyridine-2-carboxamide], the EC50 (human CB2 receptors) is reported as 15 nM and the EC50 (human CB1 receptors) is reported as greater than 10000 nM.

NC(=O)CC1(NC(=O)c2ccc(N3CC(F)(F)C3)c(OCC3CC3)n2)CCOC1 (stereo not shown) [Example 82, N-[3-(2-Amino-2-oxoethyl)oxolan-3-yl]-6-(cyclopropylmethoxy)-5-(3,3-difluoroazetidin-1-yl)pyridine-2-carboxamide] gave an EC50 (human CB2 receptors; [1]) of 1.5 nM and an EC50 (human CB1 receptors; [2]) greater than 10000 nM.

NC(=O)CC1(NC(=O)c2ccc(N3CC(F)(F)C3)c(OCC3CC3)n2)CCN(C(=O)OCc2ccccc2)C1 (stereo not shown) [Example 83, Benzyl 3-(2-amino-2-oxoethyl)-3-[[6-(cyclopropylmethoxy)-5-(3,3-difluoroazetidin-1-yl)pyridine-2-carbonyl]amino]pyrrolidine-1-carboxylate] showed an EC50 (human CB2 receptors; [1]) of 1330 nM and an EC50 (human CB1 receptors; [2]) greater than 10000 nM.

NC(=O)CC1(NC(=O)c2ccc(N3CC(F)(F)C3)c(OCC3CC3)n2)CCNC1 (stereo not shown) [Example 84, N-[3-(2-Amino-2-oxoethyl)pyrrolidin-3-yl]-6-(cyclopropylmethoxy)-5-(3,3-difluoroazetidin-1-yl)pyridine-2-carboxamide] gave an EC50 (human CB2 receptors; [1]) of 67.6 nM and an EC50 (human CB1 receptors; [2]) greater than 10000 nM.

NC(=O)CC1(NC(=O)c2ccc(N3CC(F)(F)C3)c(OCC3CC3)n2)CCNCC1 [Example 85, N-[4-(2-Amino-2-oxoethyl)piperidin-4-yl]-6-(cyclopropylmethoxy)-5-(3,3-difluoroazetidin-1-yl)pyridine-2-carboxamide] was tested, and the EC50 (human CB2 receptors; [1]) was 270 nM and the EC50 (human CB1 receptors; [2]) was greater than 10000 nM.

In the case of NC(=O)CC1(NC(=O)c2ccc(C3CC3)c(OCC3CC3)n2)CCNCC1 [Example 86, N-[4-(2-Amino-2-oxoethyl)piperidin-4-yl]-5-cyclopropyl-6-(cyclopropylmethoxy)pyridine-2-carboxamide], the EC50 (human CB2 receptors; [1]) is reported as 240 nM and the EC50 (human CB1 receptors; [2]) is reported as greater than 10000 nM.

For NC(=O)CC1(NC(=O)c2ccc(C3CC3)c(Cc3ccc(F)cc3)n2)CCOC1 (stereo not shown) [Example 87, N-[3-(2-Amino-2-oxoethyl)oxolan-3-yl]-5-cyclopropyl-6-[(4-fluorophenyl)methyl]pyridine-2-carboxamide], the EC50 (human CB2 receptors) was 0.3 nM and the EC50 (human CB1 receptors) was 34.8 nM.

NC(=O)CC1(NC(=O)c2ccc(C3CC3)c(OCC3CC3)n2)CCOC1 (stereo not shown) [Example 88, N-[3-(2-Amino-2-oxoethyl)oxolan-3-yl]-5-cyclopropyl-6-(cyclopropylmethoxy)pyridine-2-carboxamide] was tested, and the EC50 (human CB2 receptors; [1]) was 2 nM and the EC50 (human CB1 receptors; [2]) was greater than 10000 nM.

NC(=O)CC1(NC(=O)c2ccc(C3(F)CCC3)c(OCC3CC3)n2)COC1 [Example 89, N-[3-(2-Amino-2-oxoethyl)oxetan-3-yl]-6-(cyclopropylmethoxy)-5-(1-fluorocyclobutyl)pyridine-2-carboxamide] showed an EC50 (human CB2 receptors; [1]) of 11.9 nM and an EC50 (human CB1 receptors; [2]) greater than 10000 nM.

With NC(=O)CC1(NC(=O)c2ccc(C3(O)CCC3)c(OCC3CC3)n2)COC1 [Example 90, N-[3-(2-Amino-2-oxoethyl)oxetan-3-yl]-6-(cyclopropylmethoxy)-5-(1-hydroxycyclobutyl)pyridine-2-carboxamide] the EC50 (human CB2 receptors; [1]) was 8.8 nM and the EC50 (human CB1 receptors; [2]) was greater than 10000 nM.

Work on NC(=O)CC1(NC(=O)c2ccc(C3(O)CCC3)c(OCC3CC3)n2)CS(=O)(=O)C1 [Example 92, N-[3-(2-Amino-2-oxoethyl)-1,1-dioxothietan-3-yl]-6-(cyclopropylmethoxy)-5-(1-hydroxycyclobutyl)pyridine-2-carboxamide] yielded an EC50 (human CB2 receptors; [1]) of 2.2 nM and an EC50 (human CB1 receptors; [2]) greater than 10000 nM.

NC(=O)CC1(NC(=O)c2ccc(C3(F)COC3)c(OCC3CC3)n2)COC1 [Example 93, N-[3-(2-Amino-2-oxoethyl)oxetan-3-yl]-6-(cyclopropylmethoxy)-5-(3-fluorooxetan-3-yl)pyridine-2-carboxamide] showed an EC50 (human CB2 receptors; [1]) of 14.9 nM and an EC50 (human CB1 receptors; [2]) greater than 10000 nM.

Work on NC(=O)CC1(NC(=O)c2ccc(C3(O)COC3)c(OCC3CC3)n2)COC1 [Example 94, N-[3-(2-Amino-2-oxoethyl)oxetan-3-yl]-6-(cyclopropylmethoxy)-5-(3-hydroxyoxetan-3-yl)pyridine-2-carboxamide] yielded an EC50 (human CB2 receptors; [1]) of 251 nM and an EC50 (human CB1 receptors; [2]) greater than 10000 nM.

Compound NC(=O)CC1(NC(=O)c2ccc(C3(O)CCC3)c(OCC3CC3)n2)CSC1 [Example 95, N-[3-(2-Amino-2-oxoethyl)thietan-3-yl]-6-(cyclopropylmethoxy)-5-(1-hydroxycyclobutyl)pyridine-2-carboxamide] has an EC50 (human CB2 receptors; [1]) of 1.1 nM and an EC50 (human CB1 receptors; [2]) greater than 10000 nM.

For NC(=O)CC1(NC(=O)c2ccc(C3CC3)c(OCC3CC3)n2)CSC1 [Example 96, N-[3-(2-Amino-2-oxoethyl)thietan-3-yl]-5-cyclopropyl-6-(cyclopropylmethoxy)pyridine-2-carboxamide], the EC50 (human CB2 receptors; [1]) was 1.8 nM and the EC50 (human CB1 receptors; [2]) was greater than 10000 nM.

NC(=O)CC1(NC(=O)c2ccc(C(F)(F)F)c(OCC3CC3)n2)CSC1 [Example 97, N-[3-(2-Amino-2-oxoethyl)thietan-3-yl]-6-(cyclopropylmethoxy)-5-(trifluoromethyl)pyridine-2-carboxamide] showed an EC50 (human CB2 receptors; [1]) of 11.5 nM and an EC50 (human CB1 receptors; [2]) greater than 10000 nM.

NC(=O)CC1(NC(=O)c2ccc(C3(F)COC3)c(OCC3CC3)n2)CSC1 [Example 98, N-[3-(2-Amino-2-oxoethyl)thietan-3-yl]-6-(cyclopropylmethoxy)-5-(3-fluorooxetan-3-yl)pyridine-2-carboxamide] showed an EC50 (human CB2 receptors; [1]) of 1.2 nM and an EC50 (human CB1 receptors; [2]) greater than 10000 nM.

Source: patent publication US9522886B2, “Pyridine derivatives” (Hoffmann-La Roche Inc., priority 2012, dated 2016)
